Data taken from ChEMBL document CHEMBL4321836, “Discovery of BAY-298 and BAY-899: Tetrahydro-1,6-naphthyridine-Based, Potent, and Selective Antagonists of the Luteinizing Hormone Receptor Which Reduce Sex Hormone Levels in Vivo” (J Med Chem, 2019).

How the values were obtained:
[1] = biological target: T1, Adenosine receptor A2b (Homo sapiens) (UniProt P29275); assay: Agonist activity at human A2B receptor expressed in HEK293 cells at 10 uM after 10 mins by HTRF assay relative to control; type: cell-based
T1 sequence (whole entry): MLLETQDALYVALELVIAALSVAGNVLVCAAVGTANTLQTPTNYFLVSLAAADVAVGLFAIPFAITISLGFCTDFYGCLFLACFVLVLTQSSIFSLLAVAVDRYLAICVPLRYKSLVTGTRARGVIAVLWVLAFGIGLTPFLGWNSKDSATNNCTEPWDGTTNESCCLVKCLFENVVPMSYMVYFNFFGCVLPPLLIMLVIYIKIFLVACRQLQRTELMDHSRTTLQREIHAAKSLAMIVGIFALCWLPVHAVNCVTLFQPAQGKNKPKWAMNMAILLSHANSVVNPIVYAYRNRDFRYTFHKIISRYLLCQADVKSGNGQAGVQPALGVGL

[2] = biological target: T2, Muscarinic acetylcholine receptor M1 (Homo sapiens) (UniProt P11229); assay: Agonist activity at human muscarinic M1 receptor expressed in CHO-K1 cells at 10 uM by fluorimetric method relative to control; type: cell-based
T2 sequence (whole entry): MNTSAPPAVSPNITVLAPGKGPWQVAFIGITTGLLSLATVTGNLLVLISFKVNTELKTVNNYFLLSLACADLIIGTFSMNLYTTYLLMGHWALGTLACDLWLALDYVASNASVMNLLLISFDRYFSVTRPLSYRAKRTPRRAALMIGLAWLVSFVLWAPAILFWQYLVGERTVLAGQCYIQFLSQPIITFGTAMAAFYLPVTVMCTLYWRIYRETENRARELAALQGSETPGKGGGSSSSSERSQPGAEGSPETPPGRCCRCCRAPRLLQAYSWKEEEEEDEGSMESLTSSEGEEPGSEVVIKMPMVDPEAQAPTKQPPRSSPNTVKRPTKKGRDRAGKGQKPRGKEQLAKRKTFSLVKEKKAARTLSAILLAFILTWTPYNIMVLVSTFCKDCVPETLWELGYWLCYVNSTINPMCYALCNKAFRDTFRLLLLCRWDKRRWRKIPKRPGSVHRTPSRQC

[3] = biological target: Thyrotropin receptor (Homo sapiens, UniProt P16473); assay: Antagonist activity at human thyroid stimulating hormone receptor expressed in rat HTC133 cells assessed as reduction in agonist-induced cAMP production preincubated for 20 mins followed by agonist solution addition and measured after 60 mins by cell based TR-FRET assay; type: functional
Chain of Thyrotropin receptor (P16473 whole entry): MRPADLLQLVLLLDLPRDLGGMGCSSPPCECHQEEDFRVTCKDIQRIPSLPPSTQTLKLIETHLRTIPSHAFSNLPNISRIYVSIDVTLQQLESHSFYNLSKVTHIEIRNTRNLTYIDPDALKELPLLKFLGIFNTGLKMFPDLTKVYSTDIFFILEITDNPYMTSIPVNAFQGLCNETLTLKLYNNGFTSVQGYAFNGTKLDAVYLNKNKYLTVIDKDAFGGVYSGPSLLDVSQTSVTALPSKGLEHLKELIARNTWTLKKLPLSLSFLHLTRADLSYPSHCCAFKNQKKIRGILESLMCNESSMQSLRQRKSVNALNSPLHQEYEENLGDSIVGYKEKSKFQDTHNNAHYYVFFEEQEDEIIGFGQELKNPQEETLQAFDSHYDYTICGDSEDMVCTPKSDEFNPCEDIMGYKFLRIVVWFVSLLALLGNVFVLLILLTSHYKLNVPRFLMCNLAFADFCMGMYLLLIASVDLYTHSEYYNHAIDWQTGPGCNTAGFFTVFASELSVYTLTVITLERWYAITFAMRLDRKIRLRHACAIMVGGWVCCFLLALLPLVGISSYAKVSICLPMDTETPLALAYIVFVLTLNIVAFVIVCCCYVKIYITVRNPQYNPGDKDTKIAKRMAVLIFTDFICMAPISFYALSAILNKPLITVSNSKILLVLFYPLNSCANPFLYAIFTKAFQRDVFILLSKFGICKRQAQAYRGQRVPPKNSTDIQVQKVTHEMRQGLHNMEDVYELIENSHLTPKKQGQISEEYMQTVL

[4] = Dose normalized Cmax in Wistar rat at 2 mg/kg, po after 8 to 72 hrs by LC-MS/MS analysis; type: ADME, organism-based; conditions: in vivo
[5] = biological target: D(1A) dopamine receptor (Homo sapiens) (UniProt P21728); assay: Agonist activity at human D1 receptor expressed in CHO-K1 cells at 10 uM after 30 mins HTRF assay relative to control; type: cell-based
Chain of D(1A) dopamine receptor (Homo sapiens) (P21728 whole entry): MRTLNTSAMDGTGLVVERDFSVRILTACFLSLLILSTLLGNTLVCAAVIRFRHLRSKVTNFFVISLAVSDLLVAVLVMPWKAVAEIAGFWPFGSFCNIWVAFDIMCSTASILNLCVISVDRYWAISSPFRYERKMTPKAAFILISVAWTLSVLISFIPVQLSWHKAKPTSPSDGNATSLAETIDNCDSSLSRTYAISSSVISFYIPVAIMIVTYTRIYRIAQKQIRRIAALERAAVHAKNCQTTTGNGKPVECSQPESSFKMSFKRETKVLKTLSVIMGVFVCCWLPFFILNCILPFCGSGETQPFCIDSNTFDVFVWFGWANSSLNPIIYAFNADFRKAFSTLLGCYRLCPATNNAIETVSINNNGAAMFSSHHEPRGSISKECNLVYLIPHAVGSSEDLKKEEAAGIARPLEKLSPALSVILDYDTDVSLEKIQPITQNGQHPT

[6] = Clearance in Han Wistar rat hepatocytes at 1 uM measured after 2 to 90 mins by LC-MS/MS analysis; type: ADME, cell-based, Hepatocyte
[7] = biological target: Beta-2 adrenergic receptor (Homo sapiens) (UniProt P07550); assay: Antagonist activity at human beta2 adrenergic receptor expressed in CHO-K1 cells at 10 uM after 30 mins HTRF assay relative to control; type: cell-based; set-up: scale not given: the % may be the effect or the level left
Chain of Beta-2 adrenergic receptor (Homo sapiens) (P07550 whole entry, looked up): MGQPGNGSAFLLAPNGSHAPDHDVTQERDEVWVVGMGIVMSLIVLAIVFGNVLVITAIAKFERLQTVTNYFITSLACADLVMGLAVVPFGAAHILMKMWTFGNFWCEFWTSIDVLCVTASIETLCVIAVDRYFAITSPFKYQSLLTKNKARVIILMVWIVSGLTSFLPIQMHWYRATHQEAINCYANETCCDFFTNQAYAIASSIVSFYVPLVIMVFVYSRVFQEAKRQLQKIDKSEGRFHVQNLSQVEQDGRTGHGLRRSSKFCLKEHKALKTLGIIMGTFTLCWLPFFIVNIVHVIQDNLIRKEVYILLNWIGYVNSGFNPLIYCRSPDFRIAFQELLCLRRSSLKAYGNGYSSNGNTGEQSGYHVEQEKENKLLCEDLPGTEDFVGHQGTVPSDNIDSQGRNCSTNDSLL

[8] = biological target: P2Y purinoceptor 2 (Homo sapiens) (UniProt P41231); assay: Agonist activity at human P2Y2 receptor expressed in human 1321N1 cells at 10 uM by fluorimetric method relative to control; type: cell-based
Chain of P2Y purinoceptor 2 (Homo sapiens) (P41231 whole entry): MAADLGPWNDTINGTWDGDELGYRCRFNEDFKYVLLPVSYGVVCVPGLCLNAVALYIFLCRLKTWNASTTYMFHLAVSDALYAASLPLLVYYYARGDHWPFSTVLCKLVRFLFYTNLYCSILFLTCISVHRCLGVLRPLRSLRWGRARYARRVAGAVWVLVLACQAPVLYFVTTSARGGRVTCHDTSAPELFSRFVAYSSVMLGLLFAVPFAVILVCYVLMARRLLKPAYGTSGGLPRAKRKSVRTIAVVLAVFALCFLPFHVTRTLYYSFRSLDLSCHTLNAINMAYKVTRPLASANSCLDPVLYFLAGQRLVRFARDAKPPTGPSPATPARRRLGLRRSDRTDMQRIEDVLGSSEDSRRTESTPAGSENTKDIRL

[9] = Clearance in rat liver microsomes at 1 uM measured after 2 to 60 mins in presence of glucose-6-phosphate by LC-MS/MS analysis; type: ADME, Microsome
[10] = Apparent permeability across basolateral to apical side in human Caco2 cells at 2 uM after 2 hrs by LC-MS/MS analysis; type: ADME, cell-based; conditions: Caco-2
[11] = biological target: Motilin receptor (Homo sapiens) (UniProt O43193); assay: Antagonist activity at human Motilin receptor expressed in CHO-K1 cells at 10 uM by fluorimetric method relative to control; type: cell-based; set-up: scale not given: the % may be the effect or the level left
Chain of Motilin receptor (Homo sapiens) (O43193 whole entry): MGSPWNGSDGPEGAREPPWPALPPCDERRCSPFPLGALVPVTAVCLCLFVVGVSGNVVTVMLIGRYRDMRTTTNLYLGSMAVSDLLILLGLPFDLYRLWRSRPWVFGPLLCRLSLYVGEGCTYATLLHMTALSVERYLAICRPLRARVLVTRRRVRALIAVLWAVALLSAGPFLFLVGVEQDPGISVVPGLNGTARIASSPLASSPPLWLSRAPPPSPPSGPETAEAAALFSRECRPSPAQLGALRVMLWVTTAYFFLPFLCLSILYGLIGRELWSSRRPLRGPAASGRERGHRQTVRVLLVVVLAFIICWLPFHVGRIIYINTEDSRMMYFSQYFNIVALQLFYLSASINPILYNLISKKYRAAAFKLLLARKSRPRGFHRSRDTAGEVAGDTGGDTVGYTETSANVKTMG

[12] = Maximum oral bioavailability in human liver microsomes based well stirred liver model at 1 uM measured after 2 to 60 mins in presence of glucose-6-phosphate by LC-MS/MS analysis; type: ADME, Microsome; conditions: read-out: Fmax
[13] = biological target: Mu-type opioid receptor (Homo sapiens) (UniProt P35372); assay: Antagonist activity at human mu opioid receptor expressed in CHO-K1 cells at 10 uM after 10 mins by HTRF assay relative to control; type: cell-based; set-up: scale not given: the % may be the effect or the level left
Chain of Mu-type opioid receptor (Homo sapiens) (P35372 whole entry): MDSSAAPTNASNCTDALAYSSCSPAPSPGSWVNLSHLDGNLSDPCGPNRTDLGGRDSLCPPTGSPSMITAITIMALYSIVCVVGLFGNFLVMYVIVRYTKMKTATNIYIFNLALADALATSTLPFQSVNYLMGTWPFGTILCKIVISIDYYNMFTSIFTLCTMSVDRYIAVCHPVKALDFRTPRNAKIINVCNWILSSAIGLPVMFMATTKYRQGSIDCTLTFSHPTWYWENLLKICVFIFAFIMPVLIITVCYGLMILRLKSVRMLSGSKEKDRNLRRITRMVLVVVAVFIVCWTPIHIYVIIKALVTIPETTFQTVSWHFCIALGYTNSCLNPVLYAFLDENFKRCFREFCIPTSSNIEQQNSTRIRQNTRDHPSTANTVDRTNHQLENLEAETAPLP

[14] = biological target: T3, Alpha-2A adrenergic receptor (Homo sapiens) (UniProt P08913); assay: Antagonist activity at human alpha2A adrenergic receptor expressed in Chem-1 cells at 10 uM by fluorimetric method relative to control; type: cell-based; set-up: scale not given: the % may be the effect or the level left
T3 sequence (whole entry): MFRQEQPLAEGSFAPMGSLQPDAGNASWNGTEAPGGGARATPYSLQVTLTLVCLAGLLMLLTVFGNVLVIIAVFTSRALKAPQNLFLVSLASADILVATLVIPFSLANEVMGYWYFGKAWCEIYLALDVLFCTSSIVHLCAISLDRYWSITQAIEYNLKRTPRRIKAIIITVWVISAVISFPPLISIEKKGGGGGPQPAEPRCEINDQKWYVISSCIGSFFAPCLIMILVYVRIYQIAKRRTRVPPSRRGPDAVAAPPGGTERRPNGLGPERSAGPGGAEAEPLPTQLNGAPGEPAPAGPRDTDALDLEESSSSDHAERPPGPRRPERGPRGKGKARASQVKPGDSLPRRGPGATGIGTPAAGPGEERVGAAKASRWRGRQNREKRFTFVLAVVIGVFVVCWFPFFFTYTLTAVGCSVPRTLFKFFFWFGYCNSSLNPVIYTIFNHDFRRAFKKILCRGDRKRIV

[15] = Dose normalized AUC in Wistar rat at 0.5 mg/kg, iv after 2 to 72 hrs by LC-MS/MS analysis; type: ADME, organism-based; conditions: in vivo
[16] = biological target: Somatostatin receptor type 4 (Homo sapiens) (UniProt P31391); assay: Antagonist activity at human sst4 expressed in CHO-K1 cells at 10 uM after 10 mins by HTRF assay relative to control; type: cell-based; set-up: scale not given: the % may be the effect or the level left
Chain of Somatostatin receptor type 4 (Homo sapiens) (P31391 whole entry): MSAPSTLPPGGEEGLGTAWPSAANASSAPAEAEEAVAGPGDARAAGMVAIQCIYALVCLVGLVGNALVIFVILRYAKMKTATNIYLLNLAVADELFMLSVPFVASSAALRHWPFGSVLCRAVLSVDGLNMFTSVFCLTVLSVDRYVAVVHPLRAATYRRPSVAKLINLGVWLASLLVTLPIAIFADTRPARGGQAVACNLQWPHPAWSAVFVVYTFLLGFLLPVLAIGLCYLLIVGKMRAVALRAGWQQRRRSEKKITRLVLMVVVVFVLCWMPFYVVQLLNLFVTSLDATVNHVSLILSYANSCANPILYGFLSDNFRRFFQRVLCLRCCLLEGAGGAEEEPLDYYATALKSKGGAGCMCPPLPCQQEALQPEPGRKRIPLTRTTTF

[17] = Oral bioavailability in Wistar rat at 2 mg/kg after 8 to 72 hrs by LC-MS/MS analysis; type: ADME, organism-based; conditions: in vivo
[18] = Chemical stability of the compound at pH 1 to 10 measured after 1 to 24 hrs by HPLC-UV method; type: physicochemical; conditions: buffer
[19] = biological target: T2, Muscarinic acetylcholine receptor M1 (Homo sapiens); assay: Antagonist activity at human muscarinic M1 receptor expressed in CHO-K1 cells at 10 uM by fluorimetric method relative to control; type: cell-based; set-up: scale not given: the % may be the effect or the level left
[20] = biological target: Histamine H3 receptor (Homo sapiens) (UniProt Q9Y5N1); assay: Agonist activity at human histamine H3 receptor expressed in CHO-K1 cells at 10 uM after 10 mins by HTRF assay relative to control; type: cell-based
Chain of Histamine H3 receptor (Homo sapiens) (Q9Y5N1 whole entry): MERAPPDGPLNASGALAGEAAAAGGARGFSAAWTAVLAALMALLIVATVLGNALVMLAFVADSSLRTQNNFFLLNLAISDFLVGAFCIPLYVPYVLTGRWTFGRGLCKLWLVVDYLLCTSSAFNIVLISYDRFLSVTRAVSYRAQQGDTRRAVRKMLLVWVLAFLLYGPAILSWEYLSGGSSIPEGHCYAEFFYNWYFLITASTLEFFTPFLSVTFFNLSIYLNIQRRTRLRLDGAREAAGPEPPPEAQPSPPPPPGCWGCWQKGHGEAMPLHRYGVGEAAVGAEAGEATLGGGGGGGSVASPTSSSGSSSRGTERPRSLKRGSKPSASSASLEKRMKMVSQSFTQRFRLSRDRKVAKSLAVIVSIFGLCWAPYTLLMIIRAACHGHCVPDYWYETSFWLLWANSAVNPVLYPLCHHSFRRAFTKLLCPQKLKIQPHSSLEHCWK

[21] = biological target: Cytochrome P450 3A4 (Homo sapiens, UniProt P08684); assay: Inhibition of CYP3A4 in human liver microsomes using midazolam as substrate by LC-MS/MS analysis; type: ADME
Chain of Cytochrome P450 3A4 (P08684 whole entry): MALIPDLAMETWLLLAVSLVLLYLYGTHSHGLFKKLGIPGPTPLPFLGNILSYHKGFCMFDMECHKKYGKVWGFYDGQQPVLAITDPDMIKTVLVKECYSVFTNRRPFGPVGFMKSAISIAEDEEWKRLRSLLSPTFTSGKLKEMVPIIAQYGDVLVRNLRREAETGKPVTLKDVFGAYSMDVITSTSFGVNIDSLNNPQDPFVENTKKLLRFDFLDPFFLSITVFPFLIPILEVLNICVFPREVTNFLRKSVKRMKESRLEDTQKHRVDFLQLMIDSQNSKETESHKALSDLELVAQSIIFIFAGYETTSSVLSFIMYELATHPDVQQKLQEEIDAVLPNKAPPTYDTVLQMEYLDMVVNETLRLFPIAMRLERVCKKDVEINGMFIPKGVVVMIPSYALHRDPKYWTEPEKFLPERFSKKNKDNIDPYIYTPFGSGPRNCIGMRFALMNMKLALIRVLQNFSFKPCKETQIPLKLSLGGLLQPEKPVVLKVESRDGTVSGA

[22] = Maximum oral bioavailability in rat liver microsomes based well stirred liver model at 1 uM measured after 2 to 60 mins in presence of glucose-6-phosphate by LC-MS/MS analysis; type: ADME, Microsome; conditions: read-out: Fmax
[23] = Protein binding in human plasma assessed as unbound fraction; type: ADME, cell-free

| Activity [1] [%] | Activity [2] [%] | IC50 [3] [µM] | Cmax/dose [4] [kg/L] | Activity [5] [%] | CLH [6] [mL/min/kg] | Activity [7] [%] | Activity [8] [%] | CLH [9] [mL/min/kg] | Papp B→A at 2 h, 2 µM [10] [×10⁻⁶ cm/s] | Activity [11] [%] | Fh at 1 µM [12] [%] | Activity [13] [%] | Activity [14] [%] | AUC/dose [15] [kg·h/L] | Activity [16] [%] | bioavailability [17] [%] | Stability [18] | Activity [19] [%] | Activity [20] [%] | Structure (SMILES) | other results |
| --- | --- | --- | --- | --- | --- | --- | --- | --- | --- | --- | --- | --- | --- | --- | --- | --- | --- | --- | --- | --- | --- |
| < 70 | < 70 | 24 | 0.066 | < 70 | 21.7 | < 70 | < 70 | 3.3 | 9.5 | < 70 | 89 | < 70 | < 70 | 2.5 | < 70 | 108 | Stable | < 70 | < 70 | O=C(Nc1cnc(Oc2ccc(F)cc2)nc1)N1CCc2ncccc2[C@@H]1c1ccc(F)cc1 [BAY-899] | IC50 [21]: > 20 µM; Fh at 1 µM [22]: 95%; fraction unbound [23]: 0.017 |
| < 70 | < 70 | 2.3 | 0.24 | < 70 | 18.3 | < 70 | < 70 | 3.3 | 2 | < 70 | 85 | < 70 | < 70 | 9.4 | < 70 | 83 | Stable | < 70 | < 70 | O=C(Nc1ccc(Oc2ccc(F)cc2)cc1)N1CCc2ncccc2[C@@H]1c1ccc(Cl)cc1 | IC50 [21]: > 20 µM; Fh at 1 µM [22]: 94%; fraction unbound [23]: 0.002 |
